Test results from patent US20180228801A1, “Method for Enhancing Learning Ability and Memory of Patients with Alzheimer's Disease using Mocetinostat” (National Taiwan Normal University, priority 2017, published 2018).

Experiments:
Assay type in all cases: in vivo, mice (C57BL/6J)
[1] = system: pCDK; assay: Western blot, pCDK; conditions: hippocampus
Procedure: (§1) Further, in some embodiments of the present invention, C57BL/6J strain male mice (12 week old) are used as a subject in need. After mice are allowed to adapt to the environment for 6 days, mice are anesthetized with Avertin (0.4 g/kg; purchased from Sigma). The mice are fixed on a stereotactic apparatus for operation, followed by injecting oligomeric Aβ25-35 (10 nM, 3 μL) into bilateral hippocampal CA1 (AP: […] relative to the bregma; ML: ±[…] relative to the midline; DV: […] relative to the skull) on day 7. MGCD0103 and equal volume of vehicle (saline) are intraperitoneal (i.p.) injected once a day from day 8, the day after said operation, for 29 days. On day 24, the Open Field Test is performed; on day 26, the EPM is performed; on day 28, the Y-maze is performed; on days 30 to 36, MWM is performed; and on day 37, mice are euthanized for pathological analysis.

[2] = system: NEP (Aβ degrading enzyme); assay: Western blot, NEP; conditions: hippocampus
Procedure: as §1

[3] = system: Tau protein at the Ser-202 site; assay: Immunohistochemical staining, pS202Tau; conditions: Aβ25-35 mice
Procedure: as §1
(§2) The inventor collects the brain tissue by perfusion followed by fixing and dehydrating, then, 30 μm frozen sections are obtained by a freezing microtome (CMS3050S, Leica). […] After that, avidin-biotin complex (ABC) is detected 1 hour after staining. […] After all sections have been stained, they are then fixed on a slide, dried, dehydrated, mounted, and photographed for quantity (performed by Image Pro Plus, Meida Cyberetics, USA).

[4] = system: adrenergic neurons in locus coeruleus (LC); assay: Immunohistochemical staining, adrenergic neurons (TH); conditions: saline-injected mice; Mean±SEM
Procedure: as §1
as §2, with “USA). […]” for “USA).”

[5] = system: activated microglia; assay: Immunohistochemical staining, activated microglia in hippocampus; conditions: Aβ25-35 mice
Procedure: as §1, §2

[6] = system: mice with oligomeric Aβ25-35 injected into bilateral hippocampal CA1; assay: Elevated Plus Maze Test; conditions: Aβ25-35 mice, high dose 0.5 mg/kg i.p. once a day
Procedure: as §1
By means of observing the mice exploring an unfamiliar environment, and the contradictory and conflicting behavior caused by fear of the animal of highly hanging arms of the maze, the anxiety level of the animal can be determined. […] The total time spent at the open arms for each mouse was recorded by a video tracking system (EthoVision-XT, Noldus).

[7] = system: mice with oligomeric Aβ25-35 injected into bilateral hippocampal CA1; assay: Y-Maze Activity Test; conditions: Aβ25-35 mice, high dose 0.5 mg/kg i.p. once a day
Procedure: as §1, with “On day 24, the Open Field Test is performed; on day 26, the EPM is performed; on day 28, the Y-maze is performed; on days 30 to 36, MWM is performed; and on day 37, mice are euthanized for pathological analysis.” left out
Y-Maze Activity Test is a test that takes advantage of the characteristic that mice tend to explore an unfamiliar environment, so that the short-term spatial memory of mice can be measured by means of a Y-maze module arranged with three arms (35 cm×5 cm×20 cm) formed of white acrylic. The mice are placed in the middle of the three arms of the Y-Maze, and the mice are allowed to freely and spontaneously explore for 8 minutes, wherein one count is recorded when four limbs of the mice completely enter any one of the three arms. […]

[8] = system: BACE1 (Aβ forming enzyme); assay: Western blot, BACE1; conditions: Aβ25-35 mice, hippocampus
Procedure: as §1

[9] = system: synaptophysin; assay: Western blot, synaptophysin; conditions: Aβ25-35 mice, hippocampus
Procedure: as §1

[10] = system: astrocytes; assay: Immunohistochemical staining, astrocytes in hippocampus; conditions: Aβ25-35 mice
Procedure: as §1, §2

[11] = system: serotonergic neurons in Raphe nucleus; assay: Immunohistochemical staining, serotonergic neurons (5HT); conditions: saline-injected mice; Mean±SEM
Procedure: as §1
as §2, with “USA). […]” for “USA).”

[12] = system: inactivated GSK3β (pS9); assay: Western blot, inactivated GSK3β (pS9); conditions: Aβ25-35 mice, hippocampus
Procedure: as §1

[13] = system: pERK; assay: Western blot, pERK; conditions: hippocampus
Procedure: as §1

[14] = system: IDE (Aβ degrading enzyme); assay: Western blot, IDE; conditions: Aβ25-35 mice, hippocampus
Procedure: as §1

[15] = system: mice with oligomeric Aβ25-35 injected into bilateral hippocampal CA1; assay: Open Field Test; conditions: for time spent at the central area (anxiety): Aβ25-35 mice, vs Aβ25-35 alone
Procedure: as §1
In an embodiment, OFT is performed to said mice. The mice are placed in a central area of a white box (30 cm×30 cm×30 cm). Then, mice are allowed spontaneously walk for 10 minutes, and the time that mice spend at the central area (15 cm×15 cm×15 cm) in the first 5 minutes is recorded. Since mice tend to spend time at a peripheral area of an open field when anxious, observing the time spent in the central zone there by the mice will give an indication of the level of anxiety of the mice. In addition, counting the total distance that the mice have moved in the last 5 minutes may determine an index of spontaneous exercise ability of the mice. After finishing the test for each mouse, the box was wiped with 70% and 30% (v/v) of ethanol solution to remove remaining odor in order to avoid affecting other test results.

[16] = high dose 0.5 mg/kg i.p. once a day

Nc1ccccc1NC(=O)c1ccc(CNc2nccc(-c3cccnc3)n2)cc1 [MGCD0103, N-(2-Aminophenyl)-4-[[(4-pyridin-3-ylpyrimidin-2-yl)amino]methyl] benzamide]
expression of pCDK [1]: do not show difference
expression of NEP [2]: do not have significant difference
pS202Tau ([3]; BLA region): significantly decreased
pS202Tau ([3]; hippocampal CA1): significantly decreased
TH, numbers of adrenergic neurons [4]: 44.58 ± 2.05
numbers of activated microglia [5]: significantly decrease
time spent in the open arm [6]: significantly increased
spontaneous alternation rate (short-term memory) [7]: significantly increased
expression of BACE1 [8]: does not show a significant difference
expression of synaptophysin [9]: significantly increased
numbers of astrocytes [10]: significantly decrease
5HT, numbers of serotonergic neurons [11]: 21.43 ± 1.32
expression of inactivated GSK3β (pS9) [12]: considerably increased
expression of pERK [13]: do not show difference
expression of IDE protein [14]: significantly increased
time spent at the central area (anxiety) [15, 16]: significantly increase
time spent at the central area (anxiety) ([15]; low dose 0.01 mg/kg i.p. once a day): significantly increase
total moving distance (spontaneous exercise ability) [15, 16]: does not influence
total moving distance (spontaneous exercise ability) ([15]; low dose 0.01 mg/kg i.p. once a day, vs group treated with saline): reduced
